# Experiments:
# Assay in all cases: Cysteine liganding, probe competition
# Assay type in all cases: binding
# [1] = target: T1, CKMT1B Creatine kinase U-type, mitochondrial (Homo sapiens, UniProt P12532); conditions: for Liganded: CKMT1B Res# 316, uniprot P12532
# T1 construct: 200 μL of lysate containing 5 mg/ml proteome was treated with 2 μL of 100× compound stock; endogenous in cells
# Outline: (§1)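 Read-out is loss of desthiobiotin iodoacetamide labelling at cysteines, measured on streptavidin-enriched tryptic peptides. Compound preincubation ran 1 hr at 25° C in PBS lysate holding 5 mg/ml proteome before the probe was added.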
# [2] = target: T2, TRIM33 E3 ubiquitin-protein ligase TRIM33 (Homo sapiens, UniProt Q9UPN9)
# T2 construct: Cells were resuspended in cold PBS on ice and sonicated with a probe sonicator to achieve lysis; endogenous in cells
# T2 sequence (Q9UPN9 1-1127): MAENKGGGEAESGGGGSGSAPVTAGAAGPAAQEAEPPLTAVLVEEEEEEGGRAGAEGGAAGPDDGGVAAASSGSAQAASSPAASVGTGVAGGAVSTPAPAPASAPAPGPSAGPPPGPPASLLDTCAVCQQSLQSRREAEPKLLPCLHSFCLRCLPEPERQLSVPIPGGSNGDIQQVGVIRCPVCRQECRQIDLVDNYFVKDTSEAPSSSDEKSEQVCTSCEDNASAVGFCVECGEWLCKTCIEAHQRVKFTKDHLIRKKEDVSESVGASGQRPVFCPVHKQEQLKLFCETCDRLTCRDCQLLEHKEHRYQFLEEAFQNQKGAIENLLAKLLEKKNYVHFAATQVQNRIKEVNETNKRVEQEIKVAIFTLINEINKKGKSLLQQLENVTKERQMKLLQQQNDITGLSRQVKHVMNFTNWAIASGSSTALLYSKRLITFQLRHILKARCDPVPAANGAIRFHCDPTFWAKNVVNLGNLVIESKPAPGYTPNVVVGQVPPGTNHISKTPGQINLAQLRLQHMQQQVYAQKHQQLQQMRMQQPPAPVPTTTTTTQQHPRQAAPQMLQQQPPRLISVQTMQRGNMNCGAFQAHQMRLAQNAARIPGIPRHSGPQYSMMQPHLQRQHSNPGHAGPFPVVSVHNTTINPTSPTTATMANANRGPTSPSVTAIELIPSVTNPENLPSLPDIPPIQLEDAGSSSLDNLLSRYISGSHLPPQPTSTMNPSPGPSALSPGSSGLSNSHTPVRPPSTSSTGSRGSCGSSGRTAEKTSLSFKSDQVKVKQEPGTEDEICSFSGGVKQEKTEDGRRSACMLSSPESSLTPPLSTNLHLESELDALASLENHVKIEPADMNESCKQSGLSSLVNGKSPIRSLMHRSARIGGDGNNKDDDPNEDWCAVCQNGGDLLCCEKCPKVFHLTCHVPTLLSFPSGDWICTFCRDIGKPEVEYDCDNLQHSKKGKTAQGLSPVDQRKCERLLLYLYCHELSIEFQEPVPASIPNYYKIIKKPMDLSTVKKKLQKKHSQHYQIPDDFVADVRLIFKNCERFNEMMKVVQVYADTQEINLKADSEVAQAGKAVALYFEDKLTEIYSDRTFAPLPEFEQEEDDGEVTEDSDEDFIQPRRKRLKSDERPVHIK
# Outline: as §1
# [3] = target: T3, NOC2L Nucleolar complex protein 2 homolog (Homo sapiens, UniProt Q9Y3T9)
# T3 construct: Cells were resuspended in cold PBS on ice and sonicated with a probe sonicator to achieve lysis; endogenous in cells
# Outline: as §1
smiles,measurement,setting,value
COc1ccc2c(c1)CCCN2C(=O)CCl [KB02],Liganded,[1],YES
same,Liganded,"[2]; TRIM33 Res# 582, uniprot Q9UPN9",YES
same,Liganded,"[3]; NOC2L Res# 585, uniprot Q9Y3T9",YES
O=C(CCl)Nc1cc(C(F)(F)F)cc(C(F)(F)F)c1 [KBO3],Liganded,[1],YES
same,100 Max,[1]; uniprot P12532,42.35
same,100 ave,[1]; uniprot P12532,29.59
same,500 ave,[1]; uniprot P12532,81.71
same,500 Max,"[1]; uniprot P12532, in % (unit assumed)",86.19
same,KB03_500 uM_percent_inhibition,"[2]; 500 uM, UniProt Q9UPN9",86%
same,Liganded,"[2]; TRIM33 Res# 153, uniprot Q9UPN9",YES
same,100 Max,[3]; uniprot Q9Y3T9,29.97
same,100 ave,[3]; uniprot Q9Y3T9,7.195
same,500 Max,[3]; uniprot Q9Y3T9,59.2
same,500 ave,[3]; uniprot Q9Y3T9,56.82
